One data set has as its target T1, Liver carboxylesterase 1 (Homo sapiens, UniProt P23141).
T1 sequence (P23141 whole entry): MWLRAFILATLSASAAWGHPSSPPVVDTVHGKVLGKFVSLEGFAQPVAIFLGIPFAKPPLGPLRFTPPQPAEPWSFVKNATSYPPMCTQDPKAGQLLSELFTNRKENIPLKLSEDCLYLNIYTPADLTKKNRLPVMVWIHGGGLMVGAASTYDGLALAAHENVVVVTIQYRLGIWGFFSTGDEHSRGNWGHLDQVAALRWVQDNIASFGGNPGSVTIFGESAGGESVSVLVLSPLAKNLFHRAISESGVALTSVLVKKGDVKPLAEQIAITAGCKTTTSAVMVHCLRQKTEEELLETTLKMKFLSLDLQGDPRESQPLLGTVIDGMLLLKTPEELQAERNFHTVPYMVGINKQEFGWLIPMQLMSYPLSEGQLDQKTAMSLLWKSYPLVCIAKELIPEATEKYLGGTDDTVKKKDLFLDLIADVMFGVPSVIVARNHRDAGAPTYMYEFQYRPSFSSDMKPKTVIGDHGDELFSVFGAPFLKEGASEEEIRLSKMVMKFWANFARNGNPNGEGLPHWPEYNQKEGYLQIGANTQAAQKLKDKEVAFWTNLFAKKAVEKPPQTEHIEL
Briefly: Prodrug activation in human liver microsomes assessed as CES1-mediated compound hydrolysis at […] after 90 mins by HPLC analysis. Conditions: 1.5 h.

A further data set concerns the target T2, Cocaine esterase (Homo sapiens, UniProt O00748).
T2 sequence (O00748 whole entry): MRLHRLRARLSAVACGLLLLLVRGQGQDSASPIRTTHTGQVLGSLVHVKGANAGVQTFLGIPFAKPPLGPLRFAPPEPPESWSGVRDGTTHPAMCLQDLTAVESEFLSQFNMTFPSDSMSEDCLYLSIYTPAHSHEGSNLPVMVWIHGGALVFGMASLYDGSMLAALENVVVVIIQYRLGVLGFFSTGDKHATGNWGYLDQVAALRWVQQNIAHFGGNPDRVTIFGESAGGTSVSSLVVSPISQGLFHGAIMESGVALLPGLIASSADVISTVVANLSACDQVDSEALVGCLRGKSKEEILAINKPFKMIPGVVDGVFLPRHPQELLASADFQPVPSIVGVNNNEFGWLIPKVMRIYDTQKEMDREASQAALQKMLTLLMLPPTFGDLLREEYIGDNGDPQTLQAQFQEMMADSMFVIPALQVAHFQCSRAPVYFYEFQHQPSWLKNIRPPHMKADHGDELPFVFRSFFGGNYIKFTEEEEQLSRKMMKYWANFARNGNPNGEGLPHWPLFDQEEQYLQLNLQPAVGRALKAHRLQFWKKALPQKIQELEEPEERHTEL
Briefly: Prodrug activation in human intestine microsomes assessed as CES2-mediated hydrolysis of compound at […] after 90 mins by HPLC analysis. The note with it: 1.5 h.

Data set [1] in a line: Drug metabolism ratio of CES1 mediated compound hydrolysis in human liver microsomes to CES2-mediated compound hydrolysis in human intestine microsomes. It is filed as ADME. For orientation: Microsomes from liver hold many membrane-bound enzymes, among them those of drug oxidation.
Data set [2] in a line: Prodrug activation assessed as human carboxylesterase 1b-mediated compound hydrolysis at […] after 30 mins by HPLC analysis. The note with it: isolated protein, 0.5 h.
The nature of data set [3]: Prodrug activation assessed as human carboxylesterase1c-mediated compound hydrolysis at […] after 30 mins by HPLC analysis. The note with it: isolated protein, 0.5 h.
The target in data set [4] is T3, Arylacetamide deacetylase (Homo sapiens, UniProt P22760).
T3 sequence (P22760 whole entry): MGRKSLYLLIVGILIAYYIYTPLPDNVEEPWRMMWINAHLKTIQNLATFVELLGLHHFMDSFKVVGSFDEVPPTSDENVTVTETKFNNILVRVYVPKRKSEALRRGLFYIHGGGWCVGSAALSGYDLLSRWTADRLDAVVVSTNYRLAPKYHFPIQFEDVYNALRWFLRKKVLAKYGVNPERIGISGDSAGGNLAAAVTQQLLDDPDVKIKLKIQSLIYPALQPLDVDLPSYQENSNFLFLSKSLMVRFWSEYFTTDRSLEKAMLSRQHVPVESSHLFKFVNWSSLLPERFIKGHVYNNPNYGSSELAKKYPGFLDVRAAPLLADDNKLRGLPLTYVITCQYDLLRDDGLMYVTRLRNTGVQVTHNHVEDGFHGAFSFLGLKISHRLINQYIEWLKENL
Briefly: Prodrug activation assessed as human AADAC-mediated compound hydrolysis at […] after 30 mins by HPLC analysis. Conditions: 0.5 h.

For the compound `CC(C)c1c(C(=O)Nc2ccccc2)c(-c2ccccc2)c(-c2ccc(F)cc2)n1CC[C@@H](O)C[C@@H](O)CC(=O)OC1CCCCC1`, the Drug metabolism entry on Liver carboxylesterase 1 and on Cocaine esterase was “metabolite_detected” each time. For the same compound, the Ratio in data set [1] amounted to 4.9.
`COc1ccc(OC(=O)C[C@H](O)C[C@H](O)CCn2c(-c3ccc(F)cc3)c(-c3ccccc3)c(C(=O)Nc3ccccc3)c2C(C)C)cc1`: the Drug metabolism entry on Liver carboxylesterase 1 and on Cocaine esterase was “metabolite_detected” in each case. Further, the Ratio in data set [1] is recorded as 3.4.
Take `CC(C)c1c(C(=O)Nc2ccccc2)c(-c2ccccc2)c(-c2ccc(F)cc2)n1CC[C@@H](O)C[C@@H](O)CC(=O)OCc1ccccc1`: the Drug metabolism entry at Liver carboxylesterase 1 and at Cocaine esterase was “metabolite_detected” in each case. In addition, the Ratio in data set [1] amounted to 9.1.
Turning to `CCCCOC(=O)C[C@H](O)C[C@H](O)CCn1c(-c2ccc(F)cc2)c(-c2ccccc2)c(C(=O)Nc2ccccc2)c1C(C)C`, the Drug metabolism entry on Liver carboxylesterase 1 and at Cocaine esterase was “metabolite_detected” each time. The Ratio in data set [1] is on record as 5.7.
`CC(C)c1c(C(=O)Nc2ccccc2)c(-c2ccccc2)c(-c2ccc(F)cc2)n1CC[C@@H](O)C[C@@H](O)CC(=O)Oc1ccccc1`: the Drug metabolism entry at Liver carboxylesterase 1 and on Cocaine esterase was “metabolite_detected” in each case. Also, the Ratio in data set [1] was 3.8.
For the compound `CCCCCCCCCCOC(=O)C[C@H](O)C[C@H](O)CCn1c(-c2ccc(F)cc2)c(-c2ccccc2)c(C(=O)Nc2ccccc2)c1C(C)C`, the Drug metabolism entry on Liver carboxylesterase 1 and on Cocaine esterase was “metabolite_detected” each time. Moreover, in data set [1], the Ratio is reported as 4.4.
Take `C=CCOC(=O)C[C@H](O)C[C@H](O)CCn1c(-c2ccc(F)cc2)c(-c2ccccc2)c(C(=O)Nc2ccccc2)c1C(C)C`: the Drug metabolism entry (in data set [2]; at Liver carboxylesterase 1; in data set [3]; in data set [4]; on Cocaine esterase) was “metabolite_detected” each time. Also, the Ratio in data set [1] was determined as 5.1.
With `CCOC(=O)C[C@H](O)C[C@H](O)CCn1c(-c2ccc(F)cc2)c(-c2ccccc2)c(C(=O)Nc2ccccc2)c1C(C)C`, the Drug metabolism result on Liver carboxylesterase 1 and at Cocaine esterase was “metabolite_detected” each time. In addition, in data set [1], the Ratio is reported as 40.1.
For the compound `CCCCCCCCOC(=O)C[C@H](O)C[C@H](O)CCn1c(-c2ccc(F)cc2)c(-c2ccccc2)c(C(=O)Nc2ccccc2)c1C(C)C`, the Drug metabolism result at Liver carboxylesterase 1 and on Cocaine esterase was “metabolite_detected” each time. Further, the Ratio in data set [1] is reported as 5.3.
For `CC(C)c1c(C(=O)Nc2ccccc2)c(-c2ccccc2)c(-c2ccc(F)cc2)n1CC[C@@H](O)C[C@@H](O)CC(=O)Oc1ccc(F)cc1`, the Drug metabolism entry (in data set [2]; on Liver carboxylesterase 1; in data set [3]; in data set [4]; at Cocaine esterase) was “metabolite_detected” in each case. The Ratio in data set [1] was found to be 1.9.
On to `COC(=O)C[C@H](O)C[C@H](O)CCn1c(-c2ccc(F)cc2)c(-c2ccccc2)c(C(=O)Nc2ccccc2)c1C(C)C`, for which the Drug metabolism result (in data set [2]; on Liver carboxylesterase 1; in data set [3]; in data set [4]; on Cocaine esterase) was “metabolite_detected” in each case. Besides, the Ratio in data set [1] is reported as 30.5.
For `CC(C)c1c(C(=O)Nc2ccccc2)c(-c2ccccc2)c(-c2ccc(F)cc2)n1CC[C@@H]1C[C@@H](O)CC(=O)O1` [ATORVASTATIN LACTONE], the Drug metabolism entry on Liver carboxylesterase 1 and on Cocaine esterase was “metabolite_notdetected” in each case. For the same compound, in data set [1], the Ratio is reported as 1.7.
